This note sets out measurements from PMC8398255, “Synthesis of 3,5-Bis(trifluoromethyl)phenyl-Substituted Pyrazole Derivatives as Potent Growth Inhibitors of Drug-Resistant Bacteria” (Molecules, 2021).

Assay [1] relates to E. faecium ATCC 700221 (Ef21). As to the kind of experiment: MIC, microdilution (CLSI). Conditions: Enterococcus faecium, ATCC 700221 / VRE; Ef21, vancomycin-resistant (VRE) E. faecium ATCC 700221; n = 3; read-out: MIC. The format is cell-based. How it is done:
(§1) Compounds were dissolved in dimethyl sulfoxide (DMSO) to achieve a starting concentration of 32 µg/mL as described by us previously. Compounds were further diluted two-fold across the 96-well honeycomb plate columns in cation adjusted Mueller Hinton broth (CAMHB), and bacterial culture was added. Plates were incubated for 18–20 h at 35 ℃ before determining the minimum concentrations at which wells had no visible turbidity to the naked eye. The MIC values were determined from at least a duplicate result obtained from three independent experiments using fresh bacterial cultures on different days.

The test system of assay [2] is E. faecalis ATCC 51299 (Ef99). Briefly: MIC, microdilution (CLSI). Format: cell-based. Conditions: Enterococcus faecalis, ATCC 51299 / VRE; Ef99, vancomycin-resistant (VRE) E. faecalis ATCC 51299; n = 3; read-out: MIC. How it is done: as §1
Assay [3] relates to Bacillus subtilis ATCC 6623 (Bs). Briefly: MIC, microdilution (CLSI). The format is cell-based. To be noted: ATCC6623; Bs, Bacillus subtilis ATCC 6623; n = 3; read-out: MIC. How it is done: as §1
The subject of assay [4] is E. faecalis ATCC 29212 (Ef12). Briefly: MIC, microdilution (CLSI). The format is cell-based. To be noted: Enterococcus faecalis, ATCC29212; Ef12, antibiotic susceptible E. faecalis ATCC 29212; n = 3; read-out: MIC. How it is done: as §1
Assay [5] relates to S. aureus ATCC 700699 (Sa99). As to the kind of experiment: MIC, microdilution (CLSI). Format: cell-based. Conditions: Staphylococcus aureus, ATCC700699; Sa99, methicillin-resistant S. aureus ATCC 700699; n = 3; read-out: MIC. How it is done:
as §1

The subject of assay [6] is S. epidermidis ATCC 700296 (Se). Briefly: MIC, microdilution (CLSI). The format is cell-based. To be noted: Staphylococcus epidermidis, ATCC700296; Se, S. epidermidis ATCC 700296; n = 3; read-out: MIC. How it is done: as §1
For assay [7], the system named is S. aureus BAA-2312 (Sa12). Briefly: MIC, microdilution (CLSI). To be noted: Staphylococcus aureus, BAA2312; Sa12, methicillin-resistant S. aureus BAA-2312; n = 3; read-out: MIC. Format: cell-based. How it is done: as §1
The test system of assay [8] is S. aureus ATCC 33592 (Sa92). Briefly: MIC, microdilution (CLSI). Format: cell-based. Conditions: Staphylococcus aureus, ATCC33592; Sa92, methicillin-resistant S. aureus ATCC 33592; n = 3; read-out: MIC. How it is done: as §1
In assay [9] the test system is S. aureus ATCC 25923 (Sa23). As to the kind of experiment: MIC, microdilution (CLSI). The format is cell-based. Conditions: Staphylococcus aureus, ATCC25923; Sa23, antibiotic susceptible S. aureus ATCC 25923; n = 3; read-out: MIC. How it is done:
as §1

Assay [10] deals with S. aureus ATCC 33591 (Sa91). As to the kind of experiment: MIC, microdilution (CLSI). To be noted: Staphylococcus aureus, ATCC33591; Sa91, methicillin-resistant S. aureus ATCC 33591; n = 3; read-out: MIC. Format: cell-based. How it is done:
as §1

The test system of another assay is Gram-positive bacteria. Briefly: MIC across the tested strains. The format is cell-based. To be noted: for MIC: across the tested strains; for antibacterial activity: tested bacteria. How it is done:
as §1

The test system of the next assay is S. aureus strains. Briefly: MIC against S. aureus strains. The format is cell-based, Staphylococcus aureus. How it is done:
as §1

Values after ≈ are worked out from the molar mass of the structure shown. Bounds are passed on as bounds.

In the case of `CSc1ccc(NCc2cn(-c3ccc(C(=O)O)cc3)nc2-c2cc(C(F)(F)F)cc(C(F)(F)F)c2)cc1` [Compound 6, 4-[3-[3,5-Bis(trifluoromethyl)phenyl]-4-[(4-methylsulfanylanilino)methyl]pyrazol-1-yl] benzoic acid], the MIC is 2 µg/mL (≈ 3.63 µM) in assay [1]; 2 µg/mL (≈ 3.63 µM) in assay [2]; 1 µg/mL (≈ 1.81 µM) in assay [3]; 4 µg/mL (≈ 7.25 µM) in assay [4]; 4 µg/mL (≈ 7.25 µM) in assay [5]; 4 µg/mL (≈ 7.25 µM) in assay [6]. Further, the minimal inhibitory concentration (MIC) in assay [7] is 2 µg/mL (≈ 3.63 µM); in assay [8], 2 µg/mL (≈ 3.63 µM); in [9] it was 2 µg/mL (≈ 3.63 µM); in assay [10], 2 µg/mL (≈ 3.63 µM); against Gram-positive bacteria, 1 to 4 µg/mL (≈ 1.81 to 7.25 µM).

For `O=C(O)c1ccc(NCc2cn(-c3ccc(C(=O)O)cc3)nc2-c2cc(C(F)(F)F)cc(C(F)(F)F)c2)cc1` [Compound 13, 4-[[3-[3,5-Bis(trifluoromethyl)phenyl]-1-(4-carboxyphenyl)pyrazol-4-yl]methylamino] benzoic acid], the MIC in assay [1], in [2], in assay [3], in assay [4], in assay [5] and in [6] was above 32 µg/mL in each case. For the same compound, the MIC in assay [7] was 32 µg/mL (≈ 58.2 µM); in assay [8] it was above 32 µg/mL; in assay [9], above 32 µg/mL; in assay [10], above 32 µg/mL. For the same compound, the “antibacterial activity” value with Gram-positive bacteria is on record as “eliminated the activity”.

For the compound `Cc1cc(NCc2cn(-c3ccc(C(=O)O)cc3)nc2-c2cc(C(F)(F)F)cc(C(F)(F)F)c2)ccc1F` [Compound 14, 4-[3-[3,5-Bis(trifluoromethyl)phenyl]-4-[(4-fluoro-3-methyl-anilino)methyl]pyrazol-1-yl] benzoic acid], the minimum inhibitory concentration (MIC) in [1] was 1 µg/mL (≈ 1.86 µM); in assay [2], 2 µg/mL (≈ 3.72 µM); in assay [3] it was 1 µg/mL (≈ 1.86 µM); in assay [4], 2 µg/mL (≈ 3.72 µM); in [5], 2 µg/mL (≈ 3.72 µM); in assay [6], 4 µg/mL (≈ 7.44 µM). The MIC in [7] was 1 µg/mL (≈ 1.86 µM); in [8] it was 1 µg/mL (≈ 1.86 µM); in assay [9] it was 2 µg/mL (≈ 3.72 µM); in assay [10], 2 µg/mL (≈ 3.72 µM); in the assay with Gram-positive bacteria, at least 1 µg/mL.

Regarding `O=C(O)c1ccc(-n2cc(CNc3ccccc3)c(-c3cc(C(F)(F)F)cc(C(F)(F)F)c3)n2)cc1` [Compound 1, 4-[4-(Anilinomethyl)-3-[3,5-bis(trifluoromethyl)phenyl]pyrazol-1-yl] benzoic acid], the MIC in [1] was 4 µg/mL (≈ 7.91 µM); in assay [2], 4 µg/mL (≈ 7.91 µM); in assay [3] it was 2 µg/mL (≈ 3.96 µM); in assay [4] it was 8 µg/mL (≈ 15.8 µM); in assay [5], 4 µg/mL (≈ 7.91 µM); in assay [6], 8 µg/mL (≈ 15.8 µM). The MIC in assay [7] was 2 µg/mL (≈ 3.96 µM); in assay [8] it was 4 µg/mL (≈ 7.91 µM); in [9], 4 µg/mL (≈ 7.91 µM); in assay [10], 4 µg/mL (≈ 7.91 µM); in the assay with Gram-positive bacteria it was at least 2 µg/mL.

On to `CC(C)c1ccc(NCc2cn(-c3ccc(C(=O)O)cc3)nc2-c2cc(C(F)(F)F)cc(C(F)(F)F)c2)cc1` [Compound 2, 4-[3-[3,5-Bis(trifluoromethyl)phenyl]-4-[(4-isopropylanilino)methyl]pyrazol-1-yl] benzoic acid], for which the MIC in assay [1] worked out at 1 µg/mL (≈ 1.83 µM); in assay [2] it was 1 µg/mL (≈ 1.83 µM); in assay [3] it was 1 µg/mL (≈ 1.83 µM); in assay [4], 2 µg/mL (≈ 3.65 µM); in assay [5], 2 µg/mL (≈ 3.65 µM); in assay [6] it was 2 µg/mL (≈ 3.65 µM). The minimum inhibitory concentration (MIC) in [7] was 1 µg/mL (≈ 1.83 µM); in assay [8] it was 1 µg/mL (≈ 1.83 µM); in [9], 2 µg/mL (≈ 3.65 µM); in [10] it was 1 µg/mL (≈ 1.83 µM); in the assay with S. aureus strains (Staphylococcus aureus, S. aureus strains, including MRSA), 1 to 2 µg/mL (≈ 1.83 to 3.65 µM).

For `O=C(O)c1ccc(-n2cc(CNc3ccc(F)c(C(F)(F)F)c3)c(-c3cc(C(F)(F)F)cc(C(F)(F)F)c3)n2)cc1` [Compound 22, 4-[3-[3,5-Bis(trifluoromethyl)phenyl]-4-[[4-fluoro-3-(trifluoromethyl)anilino]methyl]pyrazol-1-yl] benzoic acid], the minimal inhibitory concentration (MIC) in [1] turned out to be 1 µg/mL (≈ 1.69 µM); in assay [2] it was 2 µg/mL (≈ 3.38 µM); in [3], 2 µg/mL (≈ 3.38 µM); in [4], 2 µg/mL (≈ 3.38 µM); in assay [5], 1 µg/mL (≈ 1.69 µM); in assay [6], 2 µg/mL (≈ 3.38 µM). The minimal inhibitory concentration (MIC) in assay [7], in assay [8], in assay [9] and in [10] was 1 µg/mL (≈ 1.69 µM) in each case. In addition, the “times more effective than vancomycin and daptomycin” value with S. aureus strains (against S. aureus strains) is “up to 4 times”.

In the case of `O=C(O)c1ccc(-n2cc(CNc3ccc(F)c(F)c3)c(-c3cc(C(F)(F)F)cc(C(F)(F)F)c3)n2)cc1` [Compound 17, 4-[3-[3,5-Bis(trifluoromethyl)phenyl]-4-[(3,4-difluoroanilino)methyl]pyrazol-1-yl] benzoic acid], the minimum inhibitory concentration (MIC) was determined as 2 µg/mL (≈ 3.69 µM) in [1]; 4 µg/mL (≈ 7.39 µM) in [2]; 1 µg/mL (≈ 1.85 µM) in assay [3]; 4 µg/mL (≈ 7.39 µM) in [4]; 2 µg/mL (≈ 3.69 µM) in assay [5]; 4 µg/mL (≈ 7.39 µM) in [6]. Further, the MIC is 2 µg/mL (≈ 3.69 µM) in assay [7]; 2 µg/mL (≈ 3.69 µM) in assay [8]; 2 µg/mL (≈ 3.69 µM) in assay [9]; 2 µg/mL (≈ 3.69 µM) in assay [10]; 1 to 4 µg/mL (≈ 1.85 to 7.39 µM) in the assay on Gram-positive bacteria.

Turning to `Cc1cc(NCc2cn(-c3ccc(C(=O)O)cc3)nc2-c2cc(C(F)(F)F)cc(C(F)(F)F)c2)ccc1Br` [Compound 16, 4-[3-[3,5-Bis(trifluoromethyl)phenyl]-4-[(4-bromo-3-methyl-anilino)methyl]pyrazol-1-yl] benzoic acid], the MIC in [1] amounted to 1 µg/mL (≈ 1.67 µM); in [2], 2 µg/mL (≈ 3.34 µM); in [3], 1 µg/mL (≈ 1.67 µM); in assay [4], 1 µg/mL (≈ 1.67 µM); in assay [5], 2 µg/mL (≈ 3.34 µM); in [6] it was 2 µg/mL (≈ 3.34 µM). Also, the MIC in [7] was 1 µg/mL (≈ 1.67 µM); in assay [8] it was 1 µg/mL (≈ 1.67 µM); in [9] it was 1 µg/mL (≈ 1.67 µM); in assay [10] it was 1 µg/mL (≈ 1.67 µM); in the assay on Gram-positive bacteria it was at least 1 µg/mL.

As to `O=C(O)c1ccc(-n2cc(CNc3cccc(C(=O)O)c3)c(-c3cc(C(F)(F)F)cc(C(F)(F)F)c3)n2)cc1` [Compound 12, 3-[[3-[3,5-Bis(trifluoromethyl)phenyl]-1-(4-carboxyphenyl)pyrazol-4-yl]methylamino] benzoic acid], the MIC in assay [1], in [2], in assay [3], in [4], in [5] and in [6] was above 32 µg/mL throughout. For the same compound, the minimum inhibitory concentration (MIC) in assay [7], in assay [8], in assay [9] and in [10] was above 32 µg/mL throughout. Besides, the “antibacterial activity” value with Gram-positive bacteria is “eliminated the activity”.

As to `Cc1ccc(NCc2cn(-c3ccc(C(=O)O)cc3)nc2-c2cc(C(F)(F)F)cc(C(F)(F)F)c2)cc1Cl` [Compound 15, 4-[3-[3,5-Bis(trifluoromethyl)phenyl]-4-[(3-chloro-4-methyl-anilino)methyl]pyrazol-1-yl] benzoic acid], the MIC in assay [1] came to 1 µg/mL (≈ 1.81 µM); in [2] it was 2 µg/mL (≈ 3.61 µM); in [3], 1 µg/mL (≈ 1.81 µM); in assay [4] it was 2 µg/mL (≈ 3.61 µM); in assay [5], 2 µg/mL (≈ 3.61 µM); in assay [6], 2 µg/mL (≈ 3.61 µM). For the same compound, the MIC in [7] is 1 µg/mL (≈ 1.81 µM); in [8], 2 µg/mL (≈ 3.61 µM); in assay [9], 2 µg/mL (≈ 3.61 µM); in assay [10], 1 µg/mL (≈ 1.81 µM); against Gram-positive bacteria, at least 1 µg/mL.

`CC(C)(C)c1ccc(NCc2cn(-c3ccc(C(=O)O)cc3)nc2-c2cc(C(F)(F)F)cc(C(F)(F)F)c2)cc1` [Compound 3, 4-[3-[3,5-Bis(trifluoromethyl)phenyl]-4-[(4-tert-butylanilino)methyl]pyrazol-1-yl] benzoic acid]: the minimal inhibitory concentration (MIC) worked out at 2 µg/mL (≈ 3.56 µM) in assay [1]; 0.5 µg/mL (≈ 0.89 µM) in assay [2]; 2 µg/mL (≈ 3.56 µM) in assay [3]; 1 µg/mL (≈ 1.78 µM) in assay [4]; 2 µg/mL (≈ 3.56 µM) in assay [5]; 1 µg/mL (≈ 1.78 µM) in assay [6]. For the same compound, the minimum inhibitory concentration (MIC) in assay [7] came to 1 µg/mL (≈ 1.78 µM); in assay [8] it was 2 µg/mL (≈ 3.56 µM); in assay [9], 1 µg/mL (≈ 1.78 µM); in assay [10] it was 1 µg/mL (≈ 1.78 µM).
